{"source": "paper PMC10436550", "about": "“Subacute toxicity evaluations of LPM3480392 in rats, a full µ-opioid receptor biased agonist” (Frontiers in Pharmacology, 2023)", "key": {"[1]": {"tested_on": "Sprague Dawley (SD) rats", "assay": "Histopathology, 4-week subacute toxicity study", "format": "in vivo, rat", "settings": "for Epididymis: Cell debris, lumen, Grade: 1 (minimal), animals / Epididymis: Cell debris, lumen, Grade: 3 (moderate), animals / Epididymis: Cell debris, lumen, Total Incidence / Epididymis: Sperm, decreased, lumen, Grade: 4 (marked), animals / Epididymis: Sperm, decreased, lumen, Total Incidence / Testis: Degeneration, tubule, Grade: 2 (mild), animals / Testis: Degeneration, tubule, Total Incidence: M", "experimental": "The tissues in the Table 2 were preserved in 10% neutral phosphate-buffered formalin. Bilateral eyes, optic nerves, testes, epididymides and Harderian glands were fixed in modified Davidson’s solution. For all the above tissues in all groups, sampling, paraffin embedding, sectioning and hematoxylin-eosin staining was performed, followed by histopathology examination microscopically with light microscopy."}, "[2]": {"tested_on": "Sprague Dawley (SD) rats", "assay": "Ophthalmic examination", "format": "in vivo, rat", "settings": "2.4 mg/kg/day; both genders; end of dosing phase and recovery phase", "experimental": "The examination was conducted on rats in control and 2.4 mg/kg/day groups at the end of dosing phase (Day 27) and at the end of recovery phase (Recovery day 27). The mydriasis (eye instillation, 1-2 drops/eye) was conducted using Mydrin-P (compound tropicamide eye drops) before examination. Binocular indirect ophthalmoscope was used to examine conjunctiva, cornea, iris, lens, anterior chamber, posterior chamber and fundus."}, "[3]": {"tested_on": "Sprague Dawley (SD) rats", "assay": "Gross necropsy", "format": "in vivo, rat", "settings": "end of dosing phase and recovery phase", "experimental": "Complete gross necropsies were conducted on all surviving animals at the end of treatment (the day after the last dosing) and recovery periods. The following selected organs were weighed and evaluated in terms of organ/body or organ/brain weight ratios: brain, kidneys, adrenals, testes, ovaries, uterus, epididymides, thymus, spleen, heart and liver. Paired organs were weighed together. Organ-to-body weight ratio = Organ weight(g)/Body weight(g) × 100%, and Organ-to-brain weight ratio = Organ weight(g)/Brain weight(g) × 100%."}, "[4]": {"tested_on": "rats", "assay": "Spontaneous withdrawal test in rats", "format": "in vivo, rat", "settings": "iv 0.3 to 1.8 mg/kg/day for 30 consecutive days; data not shown", "experimental": "However, we have conducted the spontaneous withdrawal test in rats in 2019 at WCFP (data not shown in this manuscript). The rats were intravenously injected with LPM3480392 injection from 0.3 to 1.8 mg/kg/day for 30 consecutive days. […] There were no apparent abnormalities in body weights of female rats in LPM3480392 injection groups during dosing and recovery phases. The effects of LPM3480392 on body weight in males or females in the spontaneous withdrawal test are similar to those in the subacute toxicity study in rats."}, "[5]": {"tested_on": "µ-opioid receptor (MOR)", "design": "method as in Yang et al., 2022", "settings": "ref Yang et al., 2022, cited from earlier work"}, "[6]": {"settings": "0.6 mg/kg/day, end of dosing phase, 10 examined"}, "[7]": {"settings": "1.2 mg/kg/day, end of dosing phase, 10 examined"}, "[8]": {"settings": "2.4 mg/kg/day, end of dosing phase, 9 examined"}}, "note": "pEC50: −log10 of the molar value."}
{"smiles": "Fc1ccc([C@]2(CCNCc3cccc(Cl)c3)CCO[C@]3(CCOC3)C2)nc1", "note": "[LPM3480392]", "values": [{"measurement": "Epididymis: Cell debris, lumen, Grade: 1 (minimal), animals", "setting": "[1]; [6]", "result": 0}, {"measurement": "Epididymis: Cell debris, lumen, Grade: 3 (moderate), animals", "setting": "[1]; [6]", "result": 0}, {"measurement": "Epididymis: Cell debris, lumen, Total Incidence", "setting": "[1]; [6]", "result": 0}, {"measurement": "Epididymis: Sperm, decreased, lumen, Grade: 4 (marked), animals", "setting": "[1]; [6]", "result": 0}, {"measurement": "Epididymis: Sperm, decreased, lumen, Total Incidence", "setting": "[1]; [6]", "result": 0}, {"measurement": "Testis: Degeneration, tubule, Grade: 2 (mild), animals", "setting": "[1]; [6]", "result": 0}, {"measurement": "Testis: Degeneration, tubule, Total Incidence", "setting": "[1]; [6]", "result": 0}, {"measurement": "Epididymis: Cell debris, lumen, Grade: 1 (minimal), animals", "setting": "[1]; [7]", "result": 0}, {"measurement": "Epididymis: Cell debris, lumen, Grade: 3 (moderate), animals", "setting": "[1]; [7]", "result": 0}, {"measurement": "Epididymis: Cell debris, lumen, Total Incidence", "setting": "[1]; [7]", "result": 0}, {"measurement": "Epididymis: Sperm, decreased, lumen, Grade: 4 (marked), animals", "setting": "[1]; [7]", "result": 0}, {"measurement": "Epididymis: Sperm, decreased, lumen, Total Incidence", "setting": "[1]; [7]", "result": 0}, {"measurement": "Testis: Degeneration, tubule, Grade: 2 (mild), animals", "setting": "[1]; [7]", "result": 0}, {"measurement": "Testis: Degeneration, tubule, Total Incidence", "setting": "[1]; [7]", "result": 0}, {"measurement": "Epididymis: Cell debris, lumen, Grade: 1 (minimal), animals", "setting": "[1]; [8]", "result": 1}, {"measurement": "Epididymis: Cell debris, lumen, Grade: 3 (moderate), animals", "setting": "[1]; [8]", "result": 1}, {"measurement": "Epididymis: Cell debris, lumen, Total Incidence", "setting": "[1]; [8]", "result": 2}, {"measurement": "Epididymis: Sperm, decreased, lumen, Grade: 4 (marked), animals", "setting": "[1]; [8]", "result": 1}, {"measurement": "Epididymis: Sperm, decreased, lumen, Total Incidence", "setting": "[1]; [8]", "result": 1}, {"measurement": "Testis: Degeneration, tubule, Grade: 2 (mild), animals", "setting": "[1]; [8]", "result": 1}, {"measurement": "Testis: Degeneration, tubule, Total Incidence", "setting": "[1]; [8]", "result": 1}, {"measurement": "Microscopic changes in brain, heart, liver, spleen, lungs, kidney, adrenal gland, thymus, lymph node, gastrointestinal tract", "setting": "[1]; end of dosing phase and recovery phase", "result": "no microscopic changes"}, {"measurement": "Mild tubular degeneration of the testis, incidence", "setting": "[1]; males, 2.4 mg/kg/day, end of dosing phase", "result": "1/9"}, {"measurement": "Ophthalmic examination findings", "setting": "[2]", "result": "No abnormalities"}, {"measurement": "Gross necropsy findings in main organs", "setting": "[3]", "result": "no LPM3480392-related abnormalities"}, {"measurement": "Physical dependence after spontaneous withdrawal", "setting": "[4]", "result": "Physical dependence was induced"}, {"measurement": "Withdrawal behaviours reversed to normal, Recovery day", "setting": "[4]", "result": 6}, {"measurement": "Emax, in vitro biased agonism", "setting": "[5]", "result": 91.4, "unit": "%"}, {"measurement": "pEC50", "setting": "[5]; read-out: EC50, in vitro biased agonism", "result": 9.46}]}
